Measurements from patent publication US20160243151A1, “CO-RELEASING COMPOUNDS & FORMULATIONS THEREOF USEFUL FOR INDUCING MITOCHONDRIAL BIOGENESIS AND TISSUE REPAIR” (UNIVERSITÄT ZÜRICH, priority 2013, published 2016).

Experiments:
Hepa 1-6 cells [1] = assay: NOS2 and IL10 mRNA in cytomix-exposed Hepa 1-6 cells; assay type: cell-based, mouse; conditions: cytomix 24 h
Experimental: Mouse hepatoma cells (ATCC, CRL-1830) were grown to near confluence according to the manufacturer's instructions and then exposed to cytomix (a) for 24 hours. At the time of cytomix exposure, cells were treated with B12-CORM2 (25 μM) (b) or the other compounds shown in panel (A). […] (B) shown the relative mRNA levels for the pro-inflammatory enzyme NOS2 (black) and the anti-inflammatory cytokine interleukin 10 (IL10) (white), as measured by real time RT-PCR. Control and cytomix-treated cells were harvested, disrupted, and total RNA extracted. Both gene products increased in response to cytomix, but B12-CORM2 reduced NOS2 and enhanced IL10 expression. […] Moreover, administration of the low molecular weight anti-oxidant N-acetyl cysteine (NAC, 5 mM) (d) abrogates the anti-inflammatory effect of the Re-based CORM according to the invention in accordance with the proposed redox mechanism of action. Finally, the NF-kB inhibitor BAY11 (BAY 11-7082, Santa Cruz) (e) fully blocks the cytomix effect on NOS2, but only partially reduces the effect on IL-10, indicating the NF-kB-independent mechanism of action of B12-CORM2 (*, P<0.05 compared with control cells; #, P<0.05 compared with cytomix treatment). […]
Inflammation assessment. The mRNA levels for the pro-inflammatory enzyme NOS2 and the anti-inflammatory cytokine interleukin 10 (IL10) were measured by real time RT-PCR.

H9c2 cells [2] = assay: cell survival by Trypan blue exclusion in H9c2 cells exposed to DOX; assay type: cell-based, rat; conditions: +DOX (0.5 μg/ml)
Experimental: (§1) Cell culture and treatments. H9c2 cells (embryonic rat cardiomyocytes; ATCC) were maintained in DMEM (Invitrogen) supplemented with 10% fetal bovine serum (Invitrogen) and 2 mmol/l 1-glutamine. Cells were plated on 35- or 100-mm dishes in DMEM with 2% FCS for differentiation. Doxorubicin (DOX) was added to complete medium and incubated at 37° C. for different intervals at a concentration (0.5 μg/ml) similar to the plasma concentrations encountered in clinical use. Some cells were exposed to B12-CORM2 (25 μM) with or without DOX. Cells collected after 3 days of differentiation.
Cell survival. Cell survival was measured by Trypan blue exclusion.
DOX and/or B12-CORM2 were added complete medium on day 1. […] Mitochondrial protection was accompanied by improved cell survival of B12-CORM2-treated cells exposed to DOX, as assessed by Trypan blue exclusion (Table 5).

H9c2 cells [3] = assay: Western blot densitometry in H9c2 cells exposed to DOX; assay type: cell-based, rat; conditions: +DOX (0.5 μg/ml), 3 days of differentiation
Experimental: as §1
Differentiation assessment. Western blot analysis and densitometry were performed relative to tubulin for alpha-actinin as a specific marker of cardiomyocyte differentiation and intactness of the contractile apparatus.
Mitochondrial integrity and density assessment. Western blot analysis and densitometry were performed relative to tubulin for citrate synthase.
DOX and/or B12-CORM2 were added complete medium on day 1.

Hepa 1-6 cells [4] = assay: MTT reduction assay in Hepa 1-6 cells; assay type: cell-based, mouse; conditions: control and cytomix-exposed cells, 24 h
Experimental: Mouse hepatoma cells (ATCC, CRL-1830) were grown to near confluence according to the manufacturer's instructions and then exposed to cytomix (a) for 24 hours. At the time of cytomix exposure, cells were treated with B12-CORM2 (25 μM) (b) or the other compounds shown in panel (A). […] (B) shown the relative mRNA levels for the pro-inflammatory enzyme NOS2 (black) and the anti-inflammatory cytokine interleukin 10 (IL10) (white), as measured by real time RT-PCR. Control and cytomix-treated cells were harvested, disrupted, and total RNA extracted. Both gene products increased in response to cytomix, but B12-CORM2 reduced NOS2 and enhanced IL10 expression. […]
Metabolic capacity assessment: The metabolic state of Hepa 1-6 liver cells was measured using the MTT (3-(4,5-dimethylthiazol-2-yl)-2,5-diphenyltetrazolium bromide, a yellow tetrazole) reduction assay. MTT is reduced to the purple formazan by living cells, which is detected colorimetrically (at 570 nm). […]
Cytomix damages and kills liver cells such as Hepa 1-6 cells. The metabolic state of Hepa 1-6 liver cells were measured using the MTT reduction assay. MTT (3-(4,5-dimethylthiazol-2-yl)-2,5-diphenyltetrazolium bromide, a yellow tetrazole) is reduced to the purple formazan by living cells, which is detected colorimetrically. […]

E14 ESC embryoid bodies = assay: beating embryoid body out-growths; assay type: cell-based, mouse; conditions: MitoQ given in the initial five days of differentiation
Experimental: Culture and differentiation of murine E14 cells, murine D3 cells and human MEL1 cells. These cell lines were independently grown at 37° C. in 5% CO2 on gelatin-coated substrates prepared by coating plastic tissue culture flasks with a 0.1% gelatin solution. Cells were maintained in a standard medium (Iscove's Modified Dulbecco's Medium, Invitrogen) plus 15% newborn calf serum, non-essential amino acids, and nucleosides stock. Leukemia inhibitory factor (LIF) (Chemicon) at a final concentration of 1,000 U/ml and 100 μM 2-mercaptoethanol were added to standard medium to prevent differentiation. For the induction of differentiation the hanging drop method such as described in Keller, 1995, Curr. Opin. Cell. Biol., 7(6), 862-9 was used. E14 cells were cultivated without LIF in hanging drops to form embryoid bodies (EBs) ([…] cells per drop) for 2 days, then kept in suspension for 2 days, and finally plated on gelatin-coated, 96 well, single-culture dishes or single well slides. […] Adhered EBs monitored daily under an inverted microscope for spontaneously beating foci from day 3 onward until day 13. In total, 3×96 EBs from E14 cells were monitored. To confirm that the increase in contracting EBs is HO-1/CO-mediated, E14 cells were transduced with Sh-HO1 vector or empty vector, differentiated as above and monitored by fluorescence microscopy. […]

## Cc1ccc(S(=O)(=O)/C=C/C#N)cc1 [BAY11]
Hepa 1-6 cells [1]
  cytomix effect on NOS2 induction: fully blocks the cytomix effect on NOS2 induction

## COc1cccc2c1C(=O)c1c(O)c3c(c(O)c1C2=O)C[C@@](O)(C(=O)CO)C[C@@H]3O[C@H]1C[C@H](N)[C@H](O)[C@H](C)O1 [DOX, Doxorubicin]
H9c2 cells [2]
  Surviving cells (% as compared to untreated cells): 61% (9.9)
H9c2 cells [3]
  Alpha actinin expression levels (% as compared to untreated cells): 57.1% (11)
  Citrate synthase expression levels (% as compared to untreated cells): 60% (12.3)

## hemin
Hepa 1-6 cells [4]
  MTT reduction (metabolic capacity): did not provide any protection against the cytomix-induced damage

## CC(=O)N[C@@H](CS)C(=O)O [NAC, N-acetyl cysteine]
Hepa 1-6 cells [1]
  inflammatory response to cytomix (NOS2, IL10 mRNA): not protective

## COC1=C(OC)C(=O)C(CCCCCCCCCC[P+](c2ccccc2)(c2ccccc2)c2ccccc2)=C(C)C1=O [MitoQ]
E14 ESC embryoid bodies
  effect on B12-CORM2-induced percentage of beating EB: the B12-CORM2 effect was blocked
